Experiments:
CD300c-Ig = biological target: T1, CD300c-Ig (Homo sapiens, UniProt Q08708); assay: ELISA on plates coated with pure lipid; SPR on L1-chip liposomes (Biacore T200); assay type: binding; details: immobilised lipid; Fc fusion protein as analyte
T1 construct: extracellular domain fused to Fc fragment of human IgG2 (Fc as tag)
T1 sequence (Q08708 21-183 limits assumed): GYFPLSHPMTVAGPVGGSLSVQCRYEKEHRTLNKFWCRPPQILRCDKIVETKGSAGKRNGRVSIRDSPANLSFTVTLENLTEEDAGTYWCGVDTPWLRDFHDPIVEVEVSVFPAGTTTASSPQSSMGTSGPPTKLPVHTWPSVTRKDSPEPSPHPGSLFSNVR

CD300a-Ig = biological target: T2, CD300a-Ig (Homo sapiens, UniProt Q9UGN4); assay: as above; assay type: binding; details: immobilised lipid; Fc fusion protein as analyte
T2 construct: Ig (Fc) fusion protein, Fc as tag
T2 sequence (Q9UGN4 18-180 limits assumed): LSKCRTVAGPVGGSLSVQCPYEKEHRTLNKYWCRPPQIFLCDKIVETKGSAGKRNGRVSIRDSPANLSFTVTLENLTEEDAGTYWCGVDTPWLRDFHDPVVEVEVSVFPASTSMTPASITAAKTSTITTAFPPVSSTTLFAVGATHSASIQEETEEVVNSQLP

SMILES: CCCCCCCC/C=C\CCCCCCCC(=O)O[C@H](COC(=O)CCCCCCCCCCCCCCC)COP(=O)(O)OCCN [PE, 1-palmitoyl-2-oleoyl (PO) phosphatidylethanolamine (POPE)]
- ELISA on plates coated with pure lipid; SPR on L1-chip liposomes (Biacore T200) (CD300c-Ig): CD300c-Ig binds to both PS and PE at the same level
- ELISA on plates coated with pure lipid; SPR on L1-chip liposomes (Biacore T200) (CD300a-Ig): CD300a-Ig predominantly binds to PE
